≈ marks a conversion by molar mass, not a printed value. Where two headings read alike, the source gives them in different places.
Tests used:
[1] = test system: Staphylococcus aureus; assay: microbe, parasite or virus in culture; assay type: cell-based
[2] = test system: Enterococci; assay type: cell-based
[3] = test system: Streptococci; assay: Broth microdilution MIC, Streptococci (Example 11, Table 7); assay type: cell-based
[4] = test system: Clostridium difficile; assay: Broth microdilution MIC, C. difficile, anaerobic, supplemented Brucella Broth (Example 11, Table 7); assay type: cell-based
[5] = Un-inoculated solubility control plates, drug precipitation in test media; assay type: physicochemical; conditions: top concentration tested (64 μg/mL) in MHBII with blood and supplemented Brucella broth
[6] = test system: S. epidermidis (CoNS); assay: Broth microdilution MIC, S. epidermidis (CoNS) (Table 7); assay type: cell-based
[7] = test system: S. lugdenensis (CoNS); assay: Broth microdilution MIC, S. lugdenensis (CoNS) (Table 7); assay type: cell-based; conditions: S. lugdenensis (CoNS) MMX 8724
[8] = test system: S. haemolyticus (CoNS); assay: Broth microdilution MIC, S. haemolyticus (CoNS) (Table 7); assay type: cell-based; conditions: S. haemolyticus (CoNS) MMX 529 ATCC 29970
[9] = test system: S. hominis (CoNS); assay: Broth microdilution MIC, S. hominis (CoNS) (Table 7); assay type: cell-based; conditions: S. hominis (CoNS) MMX 667 ATCC 27844
[10] = test system: C. perfringens; assay type: cell-based; conditions: C. perfringens MMX 8351 ATCC 13124
[11] = test system: P. micros; assay: Broth microdilution MIC, P. micros (Table 7); assay type: cell-based; conditions: P. micros MMX 3546
[12] = test system: P. anaerobius; assay: Broth microdilution MIC, P. anaerobius (Table 7); assay type: cell-based; conditions: P. anaerobius MMX 1208 ATCC 27337
[13] = test system: P. acnes; assay: Broth microdilution MIC, P. acnes (Table 7); assay type: cell-based
[14] = test system: E. lenta; assay: Broth microdilution MIC, E. lenta (Table 7); assay type: cell-based; conditions: E. lenta MMX 1287 ATCC 43055

SMILES: CCCCCCCCCCNC1(C)CC(OC2C(Oc3c4cc5cc3Oc3ccc(cc3Cl)C(O)C3NC(=O)C(NC(=O)C5NC(=O)C(CC(N)=O)NC(=O)C(NC(=O)C(CC(C)C)NC)C(O)c5ccc(c(Cl)c5)O4)c4ccc(O)c(c4)-c4c(O)cc(O)cc4C(C(=O)O)NC3=O)OC(CO)C(O)C2O)OC(C)C1O (stereo not shown) [Compound 5, N-decyl vancomycin]
- RV40 activity as compared to Comparator ([1]; MRSA strains (Table 5), […]): 9 ×
- MIC ([1]; S. aureus MMX 100 ATCC 29213, MSSA (quality control)): 0.06 µg/mL (≈ 0.0377 µM)
- MIC ([1]; S. aureus MMX 1723, Mu50, VISA): 0.5 µg/mL (≈ 0.315 µM)
- MIC ([1]; S. aureus MMX 2010, MRSA): 0.06 µg/mL (≈ 0.0377 µM)
- MIC ([1]; S. aureus MMX 2011 ATCC BAA-1756, MRSA): 0.12 µg/mL (≈ 0.0755 µM)
- MIC ([1]; S. aureus MMX 2124, VISA, DaptoNS): 0.25 µg/mL (≈ 0.157 µM)
- MIC ([1]; S. aureus MMX 2490, MSSA): 0.06 µg/mL (≈ 0.0377 µM)
- MIC ([1]; S. aureus MMX 3982, MRSA): 0.06 µg/mL (≈ 0.0377 µM)
- MIC ([1]; S. aureus MMX 4658, VISA): 0.5 µg/mL (≈ 0.315 µM)
- MIC ([1]; S. aureus MMX 4660, VISA): 0.12 µg/mL (≈ 0.0755 µM)
- MIC ([1]; S. aureus MMX 4665, hVISA): 0.5 µg/mL (≈ 0.315 µM)
- MIC ([1]; S. aureus MMX 4675 ATCC BAA-1556, MRSA): 0.06 µg/mL (≈ 0.0377 µM)
- MIC ([1]; S. aureus MMX 5717 ATCC 33591, MRSA): 0.06 µg/mL (≈ 0.0377 µM)
- MIC ([1]; S. aureus MMX 5985, MRSA): 0.06 µg/mL (≈ 0.0377 µM)
- MIC ([1]; S. aureus MMX 5989, Mu3, hVISA): 0.06 µg/mL (≈ 0.0377 µM)
- MIC ([1]; S. aureus MMX 5999, MRSA): 0.06 µg/mL (≈ 0.0377 µM)
- MIC ([1]; S. aureus MMX 7899, MRSA): 0.06 µg/mL (≈ 0.0377 µM)
- MIC ([1]; S. aureus MMX 7900, MRSA): 0.12 µg/mL (≈ 0.0755 µM)
- MIC ([1]; S. aureus MMX 7901, MRSA): 0.06 µg/mL (≈ 0.0377 µM)
- MIC ([1]; S. aureus MMX 7902, MRSA): 0.25 µg/mL (≈ 0.157 µM)
- MIC ([1]; S. aureus MMX 7903, MRSA): 0.06 µg/mL (≈ 0.0377 µM)
- MIC ([1]; S. aureus MMX 7907, MSSA): 0.06 µg/mL (≈ 0.0377 µM)
- MIC ([1]; S. aureus MMX 7908, MSSA): 0.12 µg/mL (≈ 0.0755 µM)
- MIC [2]: 0.06 µg/mL (≈ 0.0377 µM)
- MIC ([2]; E. faecalis MMX 1086, VanA VRE): 0.06 µg/mL (≈ 0.0377 µM)
- MIC ([2]; E. faecium MMX 173, VanB VRE): 0.12 µg/mL (≈ 0.0755 µM)
- MIC ([2]; E. faecium MMX 851, VanA VRE): 2 µg/mL (≈ 1.26 µM)
- MIC ([3]; S. agalactiae MMX 427 ATCC 13813): 0.03 µg/mL (≈ 0.0189 µM)
- MIC ([3]; S. agalactiae MMX 4088): 0.015 µg/mL (≈ 0.00944 µM)
- MIC ([3]; S. agalactiae MMX 4115, erm^R): 0.015 µg/mL (≈ 0.00944 µM)
- MIC ([3]; S. anginosus (AGS) MMX 1201 ATCC 33397): 0.03 µg/mL (≈ 0.0189 µM)
- MIC ([3]; S. constellatus (AGS) MMX 5677): 0.03 µg/mL (≈ 0.0189 µM)
- MIC ([3]; S. dysgalactiae MMX 5121): 0.015 µg/mL (≈ 0.00944 µM)
- MIC ([3]; S. dysgalactiae MMX 5123): 0.03 µg/mL (≈ 0.0189 µM)
- MIC ([3]; S. dysgalactiae MMX 5124): 0.015 µg/mL (≈ 0.00944 µM)
- MIC ([3]; S. mitis (MGS) MMX 1205 ATCC 49456): 0.03 µg/mL (≈ 0.0189 µM)
- MIC ([3]; S. mitis (MGS) MMX 5798): 0.015 µg/mL (≈ 0.00944 µM)
- MIC ([3]; S. oralis (MGS) MMX 5821): 0.03 µg/mL (≈ 0.0189 µM)
- MIC ([3]; S. pneumoniae MMX 1195 ATCC 49619, PISP): 0.015 µg/mL (≈ 0.00944 µM)
- MIC ([3]; S. pyogenes MMX 946, ermR): 0.015 µg/mL (≈ 0.00944 µM)
- MIC ([4]; C. difficile MMX 4381 ATCC 700057, toxinAB-negative): 0.06 µg/mL (≈ 0.0377 µM)
- MIC ([4]; C. difficile MMX 4994 ATCC BAA-1805, ribotype 027): 0.06 µg/mL (≈ 0.0377 µM)
- MIC ([4]; C. difficile MMX 5668 ATCC BAA-1870, NAP1/027): 0.5 µg/mL (≈ 0.315 µM)
- drug precipitation [5]: Some precipitation
- MIC ([6]; S. epidermidis (CoNS) MMX 762, MRSE): 0.12 µg/mL (≈ 0.0755 µM)
- MIC ([6]; S. epidermidis (CoNS) MMX 5145, MRSE): 0.06 µg/mL (≈ 0.0377 µM)
- MIC [7]: 0.03 µg/mL (≈ 0.0189 µM)
- MIC [8]: 0.06 µg/mL (≈ 0.0377 µM)
- MIC [9]: 0.06 µg/mL (≈ 0.0377 µM)
- MIC [10]: 0.06 µg/mL (≈ 0.0377 µM)
- MIC [11]: 0.12 µg/mL (≈ 0.0755 µM)
- MIC [12]: 0.03 µg/mL (≈ 0.0189 µM)
- MIC ([13]; P. acnes MMX 7942 ATCC 6919): 0.06 µg/mL (≈ 0.0377 µM)
- MIC ([13]; P. acnes MMX 7946 ATCC 11827): 0.06 µg/mL (≈ 0.0377 µM)
- MIC [14]: 0.12 µg/mL (≈ 0.0755 µM)

— patent US20200368312A1 (priority 2017, published 2020)
